Tests used:
HPNE cell line = experiment: XTT cell proliferation assay, normal pancreatic HPNE cells; assay type: cell-based, human; settings: 72 h
Method: (§1) Human PDAC (AsPC-1, BxPC-3, Panc-1 scr, Panc-1 p53-R273H knock-out (KO) hTERT-HPNE), breast (MCF-7), lung (A549), and colon (HT-29) cancer cell lines were purchased from the American Type Culture Collection (ATCC). The MCF-7, A549, Panc-1 scr, Panc-1 p53 KO and HT-29 cell lines were grown in Dulbecco's Modified Eagle Medium (DMEM; Biological Industries, Beit HaEmek (BI), Israel), and the BxPC-3 and AsPC-1 cell lines were cultured in Roswell Park Memorial Institute-1640 (RPMI-1640; BI, Israel) medium. All media was supplemented with 10% fetal bovine serum (FBS), 200 μM L-glutamine (BI), and 1% penicillin-streptomycin (BI). Cells were cultured at 37° C. in a 5% CO2 humidified incubator.
The XTT Cell Proliferation Assay Kit was used to determine cell viability and proliferation. Cells were seeded in 96-well plates at a density of 4,000 cells per well and allowed to attach overnight in a 5% CO2 incubator at 37° C. After overnight incubation, cells were treated with culture medium or in a medium containing tigecycline, omadacycline, or eravacycline at different concentrations (1, 2, 5, 10, 25, and 50 μM) for the indicated time period. […] After shaking the plate gently to distribute the dye in the wells, the absorbance was measured with a spectrophotometer (Bio-RadiMark Microplate Absorbance reader) at a wavelength of 450 nm and a reference wavelength of 655 nm. […]

BxPC-3 cells = experiment: Scratch wound healing (cell migration) assay; assay type: cell-based, human; settings: BxPC-3, 10 μM, 0, 24, 48 and 72 hours
Method: BxPC-3 cells were cultured in six well plates to full confluence; then the monolayer of the cells was scratched using a 200 μl pipette tip. Subsequently, PBS was used to wash and remove floating and damaged cells, and medium alone or medium containing 10 μM eravacycline was added to the cells for further culture. Cell migration over the denuded area was observed and captured at the indicated times with a Nikon ECLIPSE Ts2 fluorescence microscope, equipped with DS-Fi3 camera. The wound closure rates were also measured at the indicated time points.
As one of the most malignant types of digestive tract cancer cells, PDAC cells have powerful migration and invasiveness capabilities. Therefore, the effect of eravacycline on cell migration abilities was investigated.

MCF-7 cells = experiment: XTT cell proliferation assay, MCF-7; assay type: cell-based, human; settings: MCF-7, 72 h, 1-50 μM
Method: as §1
Eravacycline dihydrochloride (MedChem Express (MCE)) was dissolved in […] (DDW). Tigecycline (MCE) and omadacycline (MCE) were dissolved in dimethyl sulphoxide (DMSO). All drugs were prepared as 100 mM stock solutions. All cell lines were treated with DMSO as a control (less than 0.1%) or tigecycline, omadacycline, or eravacycline (at the indicated concentrations) for 72 hours. Cell viability and proliferation were determined using the XTT Cell Proliferation Assay Kit (Promega).
The XTT Cell Proliferation Assay Kit was used to determine cell viability and proliferation. Cells were seeded in 96-well plates at a density of 4,000 cells per well and allowed to attach overnight in a 5% CO2 incubator at 37° C. […] After shaking the plate gently to distribute the dye in the wells, the absorbance was measured with a spectrophotometer (Bio-RadiMark Microplate Absorbance reader) at a wavelength of 450 nm and a reference wavelength of 655 nm.
To evaluate the half maximal inhibitory concentration (IC50) of tetracycline derivatives on five different cell lines (MCF-7, A549, HT-29, BxPC-3, and AsPC-1), the cells were seeded and allowed to attach overnight. […] Inhibition of cell proliferation was determined using the XTT Cell Proliferation Assay Kit. […]

p53 (mutated in BxPC-3) = experiment: Western blot of p53 protein expression in BxPC-3 cells; assay type: cell-based, human; settings: BxPC-3, 72 h, increasing concentrations
BxPC-3 xenograft tumors = experiment: BxPC-3 cell xenograft tumor model; assay type: in vivo, athymic nude mice; settings: nude mice
Method: Six-week-old female athymic nude mice were purchased from Envigo (Jerusalem, Israel) and housed in pathogen-free conditions and fed a standard sterilized diet. The mice were housed in humidity- and temperature-controlled conditions, and the light/dark cycle was set at 12 h intervals. The animal protocol was reviewed and approved by the Committee for the Ethical Care and Use of Animals in Research at Ben-Gurion University of the Negev, complying with the Israeli Animal Welfare Law. BxPC-3 cells (4×10^6) were injected subcutaneously into one flank of the mice. Tumor size was measured every other day based on caliper measurements of tumor length and width (volume=tumor length×width^2×0.5236). Ten days later, when tumors were palpable and reached volumes of 50-150 mm^3, the mice bearing tumors were randomly assigned to control or eravacycline groups (n=6). Treatment was administered every two days using either phosphate buffered saline (PBS), eravacycline (10 mg/kg by i.p. injection) or gemcitabine (25 mg/kg by i.p. injection) for 10 days. The tumor growth and mouse weight were measured every other day during the treatment period. After the last treatment, the mice were monitored for an additional six days, and then the experiment was terminated. The mice were then sacrificed, the tumors were excised, photographed, and measured, and the tumor tissues were snap-frozen, pending analysis.
To further assess the inhibition effect of eravacycline on human PDAC cells in vivo, BxPC-3 cells were injected subcutaneously into nude mice to establish xenograft models for in vivo experiments. The mice were randomly divided into three groups: the control group, the gemcitabine group (25 mg/kg), and the eravacycline group (10 mg/kg). Following the last administration of treatment, mice were monitored for an additional six days; then the experiment was terminated, the mice were sacrificed, and the tumors were excised, photographed, and weighed (FIGS. 6B-6D).

[1] = 10 mg/kg i.p. every two days for 10 days

## CN(C)[C@@H]1C(O)=C(C(N)=O)C(=O)[C@@]2(O)C(O)=C3C(=O)c4c(O)c(NC(=O)CN5CCCC5)cc(F)c4C[C@H]3C[C@@H]12 [eravacycline, (4S,4aS,5aR,12aS)-4-(Dimethylamino)-7-fluoro-3,10,12,12a-tetrahydroxy-1,11-dioxo-9-[2-(pyrrolidin-1-yl)acetamido]-1,4,4a,5,5a,6,11,12a-octahydrotetracene-2-carboxamide]
HPNE cell line
  effect on cell proliferation of normal pancreatic cells (in words): significantly less inhibition than the other PDAC cell lines
BxPC-3 cells
  migration rate to wound vs control: significantly lower migration rate
MCF-7 cells
  effect on cell survival / proliferation (in words): No significant effect
p53 (mutated in BxPC-3)
  p53 protein expression vs control: significantly reduced
BxPC-3 xenograft tumors; [1]
  mouse weight loss vs control group: no significant weight loss
  tumor growth blocked: 76%
BxPC-3 xenograft tumors; 10 mg/kg i.p.
  tumor volume and tumor weight compared with gemcitabine (25 mg/kg): superior to gemcitabine treatment

Reference: US20250325565A1, “ERAVACYCLINE FOR TREATING CANCER” (B. G. NEGEV TECHNOLOGIES AND APPLICATIONS LTD., priority 2022, published 2025)
